Measurements: patent US10421715B2, “Pleuromutilin derivative having 2-amino phenyl mercaptan side chain as well as preparation method and application thereof” (SOUTH CHINA AGRICULTURAL UNIVERSITY, priority 2016, dated 2019)
≈ marks a conversion by molar mass, not a printed value. Where two headings read alike, the source gives them in different places.

How the values were obtained:
Test in all cases: In-vitro bacteriostatic experiment, two-fold agar dilution MIC
Format in all cases: cell-based
[1] = test system: mycoplasma gallisepticum S6; conditions: for MIC: Mycoplasmoides gallisepticum, read-out: MIC S6
Method: (§1) Minimum inhibitory concentrations (MIC) of a series of compounds obtained in the disclosure were measured by using a two-fold agar dilution method. An experimental control drug selected valnemulin, and valnemulin belongs to pleuromutilin antibiotics and is the most widely applied veterinary antibiotic in the pleuromutilin antibiotics at present. By using a multi-point inoculator, bacteria solution was inoculated into a culture dish containing drugs having different concentrations at a bacteria inoculating amount of 10^6 CFU/ml. A result was observed after incubation for 24 hours at 37° C., and the concentration of a compound in a culture dish without bacteria served as the minimum inhibitory concentration (MIC) of this compound.
(§2) Strains used in the experiment were E. Coli ATCC25922, Staphylococcus aureus ATCC29213, methicillin-resistant staphylococcus ATCC43300 and mycoplasma gallisepticum S6.
(§3) 25.6 mg of synthesized target compound was precisely weighed to be placed in 10 mL of volumetric flask and dissolved with a small amount of N,N-dimethylformamide and then a volume was metered with N,N-dimethylformamide to 10 mL, so as to prepare 2560 μg/mL stock solution. In addition, 25.6 mg of pleuromutilin, tiamulin, valnemulin and retapamulin were respectively and precisely weighed to be placed in 10 ml of volumetric flask, and a volume was metered with N,N-dimethylformamide to 10 mL, so as to prepare 2560 μg/mL control stock solution.
(§4) The control stock solution was diluted in a culture dish with a doubling dilution method, each culture dish contained 1 ml of medicine liquid, the medicine liquid is diluted to 20 ml with molten MH agar, so that final concentrations of subject compounds in a series of culture dishes were respectively 64, 32, 16, 8, 4, 2, 1, 0.5, 0.25, 0.125 and 0.0625 μg/ml.

[2] = test system: Staphylococcus aureus ATCC29213; conditions: for MIC: Staphylococcus aureus, read-out: MIC S. aureus ATCC29213
Method: as §1, §2, §3, §4

E. Coli ATCC25922 = conditions: for MIC: Escherichia coli, read-out: MIC E. coli ATCC25922
Method: as §1, §2, §3, §4

[3] = test system: methicillin-resistant staphylococcus ATCC43300; conditions: for MIC: read-out: MIC MRSA ATCC43300
Method: as §1, §2, §3, §4

[4] = mycoplasma gallisepticum S6, agar dilution, 10^6 CFU/ml, 24 hours at 37° C.
[5] = agar dilution, 10^6 CFU/ml, 24 hours at 37° C.
[6] = ATCC29213, agar dilution, 10^6 CFU/ml, 24 hours at 37° C.
[7] = ATCC25922, agar dilution, 10^6 CFU/ml, 24 hours at 37° C.

Row | SMILES | MIC S6 [1, 4] | MIC S. aureus ATCC29213 [2, 5] | MIC E. coli ATCC25922 (E. Coli ATCC25922; [5]) | MIC MRSA ATCC43300 [3, 5] | further results
1 | C=C[C@]1(C)C[C@@H](OC(=O)CSc2ccccc2NC(=O)c2ccc(Cl)cc2)[C@]2(C)[C@H](C)CC[C@]3(CCC(=O)[C@H]32)[C@@H](C)[C@@H]1O [Compound 9] | 0.25 µg/mL (≈ 0.4 µM) | 0.5 µg/mL (≈ 0.801 µM) | >64 µg/mL | 0.5 µg/mL (≈ 0.801 µM) | 
2 | C=C[C@]1(C)C[C@@H](OC(=O)CSc2ccccc2N)[C@]2(C)[C@H](C)CC[C@]3(CCC(=O)[C@H]32)[C@@H](C)[C@@H]1O [Compound 13] |  |  |  |  | MIC [1, 4]: 0.0156 µg/mL (≈ 0.0321 µM); MIC [2, 6]: 0.0156 µg/mL (≈ 0.0321 µM); antibacterial activity on staphylococcus (in words) ([2]; comparison with control drugs): obviously superior to that of valnemulin and retapamulin; MIC (E. Coli ATCC25922; [7]): > 64 µg/mL; MIC [3, 5]: 0.0156 µg/mL (≈ 0.0321 µM); antibacterial activity on methicillin-resistant staphylococcus (in words) ([3]; comparison with control drugs): obviously superior to that of valnemulin and retapamulin
3 | C=CC1(C)CC(OC(=O)CSc2ccccc2NC(=O)c2cccc(C)c2)C2(C)C(C)CCC3(CCC(=O)C32)C(C)C1O (centres unmarked) [Compound 2, 22-O-[2-(3-methylbenzamnido)phenyl] thioacetyl valnemulin] | 0.25 µg/mL (≈ 0.414 µM) | 1 µg/mL (≈ 1.66 µM) | >64 µg/mL | 0.5 µg/mL (≈ 0.828 µM) | 
4 | C=C[C@]1(C)C[C@@H](OC(=O)CSC(C)(C)CNC(=O)[C@H](N)C(C)C)[C@]2(C)[C@H](C)CC[C@]3(CCC(=O)[C@H]32)[C@@H](C)[C@@H]1O [Valnemulin, reference compound] |  |  |  |  | MIC ([1]; S6, 24 h): 0.0039 µg/mL (≈ 0.0069 µM); MIC ([2]; ATCC29213, 24 h): 0.0625 µg/mL (≈ 0.111 µM); MIC (E. Coli ATCC25922; ATCC25922, 24 h): 32 µg/mL (≈ 56.7 µM); MIC ([3]; 24 h): 0.0625 µg/mL (≈ 0.111 µM)
5 | C=CC1(C)CC(OC(=O)CSc2ccccc2NC(=O)c2ccccc2F)C2(C)C(C)CCC3(CCC(=O)C32)C(C)C1O (centres unmarked) [Compound 4] | 0.25 µg/mL (≈ 0.411 µM) | 0.5 µg/mL (≈ 0.823 µM) | >64 µg/mL | 0.5 µg/mL (≈ 0.823 µM) | 
6 | C=CC1(C)CC(OC(=O)CSc2ccccc2NC(=O)c2cccc(OC)c2)C2(C)C(C)CCC3(CCC(=O)C32)C(C)C1O (centres unmarked) [Compound 11, 22-O-[2-(3-methoxybenzamido)phenyl] thioacetyl valnemulin] | 0.25 µg/mL (≈ 0.403 µM) | 1 µg/mL (≈ 1.61 µM) | >64 µg/mL | 1 µg/mL (≈ 1.61 µM) | 
7 | C=C[C@]1(C)C[C@@H](OC(=O)CSCCN(CC)CC)[C@]2(C)[C@H](C)CC[C@]3(CCC(=O)[C@H]32)[C@@H](C)[C@@H]1O [Tiamulin, reference compound] |  |  |  |  | MIC [1, 4]: 0.0156 µg/mL (≈ 0.0316 µM); MIC [2, 6]: 0.5 µg/mL (≈ 1.01 µM); MIC (E. Coli ATCC25922; [7]): > 64 µg/mL; MIC [3, 5]: 0.5 µg/mL (≈ 1.01 µM)
8 | C=C[C@]1(C)C[C@@H](OC(=O)CSc2ccccc2NC(=O)c2ccccc2C)[C@]2(C)[C@H](C)CC[C@]3(CCC(=O)[C@H]32)[C@@H](C)[C@@H]1O [Compound 1] | 0.125 µg/mL (≈ 0.207 µM) | 0.25 µg/mL (≈ 0.414 µM) | >64 µg/mL | 0.25 µg/mL (≈ 0.414 µM) | 
9 | C=C[C@]1(C)C[C@@H](OC(=O)CS[C@@H]2C[C@H]3CC[C@@H](C2)N3C)[C@]2(C)[C@H](C)CC[C@]3(CCC(=O)[C@H]32)[C@@H](C)[C@@H]1O [Retapamulin, reference compound] |  |  |  |  | MIC ([2]; ATCC29213, 24 h): 0.0625 µg/mL (≈ 0.121 µM); MIC ([3]; 24 h): 0.0625 µg/mL (≈ 0.121 µM)
10 | C=C[C@]1(C)C[C@@H](OC(=O)CO)[C@]2(C)[C@H](C)CC[C@]3(CCC(=O)[C@H]32)[C@@H](C)[C@@H]1O [Pleuromutilin] |  |  |  |  | MIC [1, 4]: 0.0625 µg/mL (≈ 0.165 µM); MIC [2, 6]: 1 µg/mL (≈ 2.64 µM); MIC (E. Coli ATCC25922; [7]): > 64 µg/mL; MIC [3, 5]: 0.5 µg/mL (≈ 1.32 µM)
11 | C=CC1(C)CC(OC(=O)CSc2ccccc2NC(=O)c2cccc(Cl)c2)C2(C)C(C)CCC3(CCC(=O)C32)C(C)C1O (centres unmarked) [Compound 8, 22-O-[2-(3-chlorobenzamido)phenyl] thioacetyl valnemulin] | 0.125 µg/mL (≈ 0.2 µM) | 0.25 µg/mL (≈ 0.4 µM) | >64 µg/mL | 0.25 µg/mL (≈ 0.4 µM) | 
12 | C=CC1(C)CC(OC(=O)CSc2ccccc2NC(=O)c2ccccc2OC)C2(C)C(C)CCC3(CCC(=O)C32)C(C)C1O (centres unmarked) [Compound 10, 22-O-[2-(2-methoxybenzamido)phenyl] thioacetyl valnemulin] | 0.25 µg/mL (≈ 0.403 µM) | 1 µg/mL (≈ 1.61 µM) | >64 µg/mL | 0.5 µg/mL (≈ 0.807 µM) | 
13 | C=C[C@]1(C)C[C@@H](OC(=O)CSc2ccccc2NC(=O)c2ccc(OC)cc2)[C@]2(C)[C@H](C)CC[C@]3(CCC(=O)[C@H]32)[C@@H](C)[C@@H]1O [Compound 12] | 0.5 µg/mL (≈ 0.807 µM) | 1 µg/mL (≈ 1.61 µM) | >64 µg/mL | 1 µg/mL (≈ 1.61 µM) | 
14 | C=CC1(C)CC(OC(=O)CSc2ccccc2NC(=O)c2ccc(C)cc2)C2(C)C(C)CCC3(CCC(=O)C32)C(C)C1O (centres unmarked) [Compound 3, 22-O-[2-(4-methylbenzamido)phenyl] thioacetyl valnemulin] | 0.25 µg/mL (≈ 0.414 µM) | 0.5 µg/mL (≈ 0.828 µM) | >64 µg/mL | 0.5 µg/mL (≈ 0.828 µM) | 
15 | C=CC1(C)CC(OC(=O)CSc2ccccc2NC(=O)c2ccc(F)cc2)C2(C)C(C)CCC3(CCC(=O)C32)C(C)C1O (centres unmarked) [Compound 6, 22-O-[2-(4-fluorobenzamido)phenyl] thioacetyl valnemulin] | 0.5 µg/mL (≈ 0.823 µM) | 1 µg/mL (≈ 1.65 µM) | >64 µg/mL | 1 µg/mL (≈ 1.65 µM) | 
16 | C=C[C@]1(C)C[C@@H](OC(=O)CSc2ccccc2NC(=O)c2ccccc2Cl)[C@]2(C)[C@H](C)CC[C@]3(CCC(=O)[C@H]32)[C@@H](C)[C@@H]1O [Compound 7] | 0.25 µg/mL (≈ 0.4 µM) | 0.5 µg/mL (≈ 0.801 µM) | >64 µg/mL | 0.5 µg/mL (≈ 0.801 µM) | 
17 | C=CC1(C)CC(OC(=O)CSc2ccccc2NC(=O)c2cccc(F)c2)C2(C)C(C)CCC3(CCC(=O)C32)C(C)C1O (centres unmarked) [Compound 5, 22-O-[2-(3-fluorobenzamido)phenyl] thioacetyl valnemulin] | 0.125 µg/mL (≈ 0.206 µM) | 0.125 µg/mL (≈ 0.206 µM) | >64 µg/mL | 0.125 µg/mL (≈ 0.206 µM) | 
